Data taken from the NIST ThermoML archive (doi:10.1016/j.jct.2018.09.037).
Where “and” joins values, the source holds several entries; their conditions need not be identical. Equal values may be shown once. ± gives the expanded uncertainty stated by the source.

Experiments:
[1] = 100 kPa, Liquid, Electromagnetic levitation / mass taken directly, volume taken from sample image
[2] = xn = mol fraction of the nth substance listed; conditions: 100 kPa, Liquid, Electromagnetic levitation / mass taken directly, volume taken from sample image

[Pd] [palladium]
[1]
Conditions	mass density [kg/m3]
1790 K	10670 ± 170
1795 K	10672 ± 170
1796 K	10652 ± 170
1802 K	10686 ± 170
1809 K	10670 ± 170
1820 K	10677 ± 180
1831 K	10627 ± 180
1843 K	10654 ± 180
1856 K	10601 ± 180
1878 K	10558 ± 180
1889 K	10592 ± 180
1890 K	10575 ± 180
1917 K	10529 ± 180
1935 K	10478 ± 180
1951 K	10465 ± 180

[Cu] [copper]
[1]
Conditions	mass density [kg/m3]
1371 K	7884 ± 110
1385 K	7849 ± 110
1400 K	7875 ± 120
1432 K	7821 ± 120
1435 K	7819 ± 120
1437 K	7806 ± 120
1441 K	7827 ± 120
1456 K	7799 ± 120
1460 K	7828 ± 120
1461 K	7826 ± 120
1489 K	7770 ± 120
1507 K	7792 ± 120
1510 K	7755 ± 120
1578 K	7716 ± 120
1624 K	7673 ± 120
1625 K	7665 ± 120
1679 K	7628 ± 120

[Cu] [copper] + [Pd]
[2], x2 = 0
Conditions	mass density [kg/m3]
1371 K	7884 ± 110
1385 K	7849 ± 110
1400 K	7875 ± 120
1432 K	7821 ± 120
1435 K	7819 ± 120
1437 K	7806 ± 120
1441 K	7827 ± 120
1456 K	7799 ± 120
1460 K	7828 ± 120
1461 K	7826 ± 120
1489 K	7770 ± 120
1507 K	7792 ± 120
1510 K	7755 ± 120
1578 K	7716 ± 120
1624 K	7673 ± 120
1625 K	7665 ± 120
1679 K	7628 ± 120

[Pd] [palladium] + [Cu]
[2]
Conditions	mass density [kg/m3]
1374 K, x1 = 0.25	8847 ± 260
1421 K, x1 = 0.25	8805 ± 260
1469 K, x1 = 0.25	8762 ± 260
1523 K, x1 = 0.25	8711 ± 260
1523 K, x1 = 0.5	9468 ± 500
1532 K, x1 = 0.5	9456 ± 500
1562 K, x1 = 0.5	9412 ± 490
1590 K, x1 = 0.25	8663 ± 260
1617 K, x1 = 0.5	9371 ± 490
1653 K, x1 = 0.5	9329 ± 490
1654 K, x1 = 0.75	9987 ± 310
1662 K, x1 = 0.5	9329 ± 490
1678 K, x1 = 0.75	9964 ± 310
1685 K, x1 = 0.25	8540 ± 260
1708 K, x1 = 0.75	9936 ± 310
1718 K, x1 = 0.5	9281 ± 490
1753 K, x1 = 0.75	9886 ± 310
1766 K, x1 = 0.5	9221 ± 480
1784 K, x1 = 0.75	9853 ± 300
1790 K, x1 = 1	10670 ± 170
1795 K, x1 = 1	10672 ± 170
1796 K, x1 = 1	10652 ± 170
1802 K, x1 = 1	10686 ± 170
1805 K, x1 = 0.5	9118 ± 480
1809 K, x1 = 1	10670 ± 170
1820 K, x1 = 1	10677 ± 180
1822 K, x1 = 0.75	9805 ± 300
1831 K, x1 = 1	10627 ± 180
1843 K, x1 = 1	10654 ± 180
1856 K, x1 = 1	10601 ± 180
1857 K, x1 = 0.75	9728 ± 300
1878 K, x1 = 1	10558 ± 180
1889 K, x1 = 1	10592 ± 180
1890 K, x1 = 1	10575 ± 180
1917 K, x1 = 1	10529 ± 180
1935 K, x1 = 1	10478 ± 180
1951 K, x1 = 1	10465 ± 180

[Pd] [palladium] + [Ni]
[2]
Conditions	mass density
1474 K, x1 = 0.25	8842 ± 260 kg/m3
1480 K, x1 = 0.5	9527 ± 500 kg/m3
1488 K, x1 = 0.5	9518 ± 500 kg/m3
1510 K, x1 = 0.25	8793 ± 260 kg/m3
1513 K, x1 = 0.5	9495 ± 500 kg/m3
1549 K, x1 = 0.5	9457 ± 490 kg/m3 and 9456 ± 490 kg/m3
1551 K, x1 = 0.25	8757 ± 260 kg/m3
1563 K, x1 = 0.75	10175 ± 300 kg/m3
1586 K, x1 = 0.5	9422 ± 490 kg/m3
1589 K, x1 = 0.75	10157 ± 300 kg/m3
1598 K, x1 = 0.75	10153 ± 300 kg/m3
1611 K, x1 = 0.25	8707 ± 250 kg/m3
1619 K, x1 = 0.75	10117 ± 300 kg/m3
1630 K, x1 = 0.5	9386 ± 490 kg/m3
1653 K, x1 = 0.75	10089 ± 300 kg/m3
1668 K, x1 = 0.25	8661 ± 250 kg/m3
1695 K, x1 = 0.5	9341 ± 490 kg/m3
1701 K, x1 = 0.75	10023 ± 300 kg/m3
1757 K, x1 = 0.25	8586 ± 250 kg/m3
1770 K, x1 = 0.5	9275 ± 490 kg/m3
1774 K, x1 = 0.75	9966 ± 300 kg/m3
1790 K, x1 = 1	10670 ± 170 kg/m3
1795 K, x1 = 1	10672 ± 170 kg/m3
1796 K, x1 = 1	10652 ± 170 kg/m3
1802 K, x1 = 1	10686 ± 170 kg/m3
1809 K, x1 = 1	10670 ± 170 kg/m3
1820 K, x1 = 1	10677 ± 180 kg/m3
1831 K, x1 = 1	10627 ± 180 kg/m3
1835 K, x1 = 0.75	9929 ± 300 kg/m3
1843 K, x1 = 1	10654 ± 180 kg/m3
1856 K, x1 = 1	10601 ± 180 kg/m3
1859 K, x1 = 0.5	9186 ± 480 kg/m3
1870 K, x1 = 0.25	8503 ± 250 kg/m3
1878 K, x1 = 1	10558 ± 180 kg/m3
1889 K, x1 = 1	10592 ± 180 kg/m3
1890 K, x1 = 1	10575 ± 180 kg/m3
1905 K, x1 = 0.75	9819 ± 290 kg/m3
1917 K, x1 = 1	10529 ± 180 kg/m3
1935 K, x1 = 1	10478 ± 180 kg/m3
1951 K, x1 = 1	10465 ± 180 kg/m3
